For orientation: half-life means how long it takes for the measured level to halve.

The conditions of data set [1]: in vivo. An excerpt:
[referred to Exp. 6-II), Table 12].
The frequency of the adverse reaction was compared between the two groups.

A short description of data set [2]: blood-level and excretion of native pinacidil. The data set is classed as in vivo, inpatients suffering from hypertension.
For data set [3] the following is noted: in vivo; cited from earlier work.
Data set [4] in a line: adverse reaction at various dosages in inpatients. The data set is classed as in vivo, inpatients suffering from hypertension. The following applies: higher dosage affording sufficient therapeutic time.
The nature of data set [5]: relationship between antihypertensive effect and blood-level of pinacidil. Details: species or system inpatients suffering from hypertension. The following applies: in vivo. The source says: The term ΔMBP means the difference between the values of Mean Blood Pressure before and after the administration, and FIGS. 1 and 2 show the average of blood-levels or ΔMBP on the five inpatients.

In the case of `CC(N/C(=N\C#N)Nc1ccncc1)C(C)(C)C` (stereo not drawn) [pinacidil, N"-cyano-N-4-pyridyl-N'-1,2,2-trimethylpropylguanidine], in data set [1], the “blood-level at which side-effects (headache) occasionally occur” value was “over 100 ng/ml” and the “maximum safety level (blood-level)” value was determined as 100 ng/mL. In data set [2] (highest dosage of unprepared pinacidil to avoid the adverse reaction), the “time the effective blood-level is kept” value is given as “about 6 hours”. For the same compound, in data set [2] (human, blood, administered after a meal, read-out: biological half-life period), the half-life lay in the range of 1 to 2 h. In addition, the Tmax in data set [2] (human, blood, administered after a meal, read-out: time to maximum concentration) lay in the range of 1 to 3 h. Moreover, the “dose proportionality of blood-level” value in data set [3] is recorded as “increases in proportion to its dose level”. Moreover, the “adverse reaction at higher dosage” value in data set [4] is listed as “usually induced the adverse reaction (i.e. headache)”. For the same compound, in data set [5], the “blood-level at which the antihypertensive effect was minimum (minimum effective blood-level)” value is listed as “around 20 ng/ml” and the “blood-level at which the antihypertensive effect was satisfactory” value was “over 30 ng/ml”.

Values taken from patent publication US4720387A (priority 1983, dated 1988).
